From the NIST ThermoML archive (doi:10.1016/j.fluid.2014.01.003)
± gives the expanded uncertainty stated by the source.

Assays:
[1] = xn = mol fraction of the nth substance listed; conditions: 298.2 K, 101 kPa, Liquid, Camera Imaging
[2] = refractive index (Na D-line) (dimensionless); conditions: 101.33 kPa, Liquid, Standard Abbe refractometry
[3] = 101.33 kPa, Liquid, Cone and plate viscometry
[4] = φn = volume fraction of the nth substance listed; conditions: 101 kPa, Liquid, Camera Imaging, φ1 = 0.5

Structure (SMILES)	refractive index ([2]; 298.2 K)	refractive index ([2]; 318.2 K)	refractive index ([2]; 328.2 K)	refractive index ([2]; 338.2 K)	viscosity ([3]; 298.2 K) [mPa·s]	viscosity ([3]; 308.2 K) [mPa·s]	viscosity ([3]; 318.2 K) [mPa·s]	viscosity ([3]; 328.2 K) [mPa·s]	viscosity ([3]; 338.2 K) [mPa·s]	binary diffusion coefficient ([4]; 298.2 K) [m2/s]	also measured
OCCO [1,2-ethanediol] + O	–	–	–	–	–	–	–	–	–	–	binary diffusion coefficient ([1]; x1 = 0.0323): 1.23e-09 m2/s; binary diffusion coefficient ([1]; x1 = 0.0698): 8.36e-10 m2/s; binary diffusion coefficient ([1]; x1 = 0.114): 7.12e-10 m2/s; binary diffusion coefficient ([1]; x1 = 0.1667): 6.38e-10 m2/s; binary diffusion coefficient ([1]; x1 = 0.242): 5.86e-10 m2/s; binary diffusion coefficient ([1]; x1 = 0.3104): 5.02e-10 m2/s; binary diffusion coefficient ([1]; x1 = 0.4119): 4.33e-10 m2/s; binary diffusion coefficient ([1]; x1 = 0.5456): 3.2e-10 m2/s; binary diffusion coefficient ([1]; x1 = 0.7298): 2.84e-10 m2/s
CCCCn1cc[n+](C)c1.N#CN=C=[N-] [1-butyl-3-methylimidazolium dicyanamide] + O	–	–	–	–	–	–	–	–	–	2.53e-10	–
CCn1cc[n+](C)c1.N#CN=C=[N-] [1-ethyl-3-methylimidazolium dicyanamide] + O	–	–	–	–	–	–	–	–	–	7.25e-10	–
CCn1cc[n+](C)c1.[O-][Cl+3]([O-])([O-])[O-] [1-ethyl-3-methylimidazolium perchlorate] + O	–	–	–	–	–	–	–	–	–	1.93e-10	–
CCn1cc[n+](C)c1.F[B-](F)(F)F [1-ethyl-3-methylimidazolium tetrafluoroborate]	1.4098 ± 0.0004	1.4065 ± 0.0004	1.4053 ± 0.0004	1.4035 ± 0.0004	45 ± 1	27 ± 1	19 ± 1	14 ± 1	11 ± 1	–	refractive index ([2]; 308.2 K): 1.4082 ± 0.0004
CCn1cc[n+](C)c1.F[B-](F)(F)F [1-ethyl-3-methylimidazolium tetrafluoroborate] + O	–	–	–	–	–	–	–	–	–	3.42e-10	binary diffusion coefficient ([4]; 308.2 K): 4.65e-10 m2/s; binary diffusion coefficient ([4]; 318.2 K): 5.57e-10 m2/s; binary diffusion coefficient ([4]; 328.2 K): 6.72e-10 m2/s; binary diffusion coefficient ([4]; 338.2 K): 7.89e-10 m2/s
O [water]	1.3325 ± 0.0005	1.3299 ± 0.0005	1.3282 ± 0.0005	1.3275 ± 0.0005	0.9	0.72	0.61	0.5	0.43	–	refractive index ([2]; 308.2 K): 1.3313 ± 0.0005

Further lines, with some results ahead:

refractive index ([2]; 298.2 K)	refractive index ([2]; 318.2 K)	refractive index ([2]; 328.2 K)	refractive index ([2]; 338.2 K)	viscosity ([3]; 298.2 K) [mPa·s]	viscosity ([3]; 308.2 K) [mPa·s]	viscosity ([3]; 318.2 K) [mPa·s]	viscosity ([3]; 328.2 K) [mPa·s]	viscosity ([3]; 338.2 K) [mPa·s]	binary diffusion coefficient ([4]; 298.2 K) [m2/s]	Structure (SMILES)	also measured
1.4023 ± 0.0004	1.3993 ± 0.0004	1.3988 ± 0.0004	1.3975 ± 0.0004	34 ± 1	22 ± 1	15 ± 1	11 ± 1	7.8 ± 1	–	Cn1cc[n+](C)c1.F[B-](F)(F)F [1,3-dimethyl-1H-imidazolium tetrafluoroborate]	–
–	–	–	–	–	–	–	–	–	6.87e-10	Cn1cc[n+](C)c1.F[B-](F)(F)F [1,3-dimethyl-1H-imidazolium tetrafluoroborate] + O	binary diffusion coefficient ([4]; 308.2 K): 7.74e-10 m2/s; binary diffusion coefficient ([4]; 318.2 K): 8.45e-10 m2/s; binary diffusion coefficient ([4]; 328.2 K): 9.62e-10 m2/s; binary diffusion coefficient ([4]; 338.2 K): 1.06e-09 m2/s
–	–	–	–	–	–	–	–	–	3.13e-10	CCCCn1cc[n+](C)c1.O=[N+]([O-])[O-] [1-butyl-3-methylimidazolium nitrate] + O	–
1.4184 ± 0.0004	1.4142 ± 0.0004	1.4125 ± 0.0004	1.4106 ± 0.0004	146 ± 4	76 ± 2	45 ± 1	29 ± 1	21 ± 1	–	CCCCn1cc[n+](C)c1.F[B-](F)(F)F [1-butyl-3-methylimidazolium tetrafluoroborate]	refractive index ([2]; 308.2 K): 1.4163 ± 0.0004
–	–	–	–	–	–	–	–	–	1.24e-10	CCCCn1cc[n+](C)c1.F[B-](F)(F)F [1-butyl-3-methylimidazolium tetrafluoroborate] + O	binary diffusion coefficient ([4]; 308.2 K): 2.56e-10 m2/s; binary diffusion coefficient ([4]; 318.2 K): 3.83e-10 m2/s; binary diffusion coefficient ([4]; 328.2 K): 5.13e-10 m2/s; binary diffusion coefficient ([4]; 338.2 K): 6.45e-10 m2/s
